Measured values as given in patent publication US20080269266A1, “NOVEL COMPOUNDS 747” (ASTRAZENECA AB, priority 2007, published 2008).
Values after ≈ are worked out from the molar mass of the structure shown.

Tests used:
[1] = Solubility in 0.1 M phosphate buffer pH 7.4; assay type: physicochemical; conditions: pH 7.4, 24 h
Description: Solubility values are determined by agitation of compounds in 0.1 M phosphate buffer at pH 7.4 for 24 h at 25° C. The supernatant is separated from undissolved material by double centrifugation and subsequently analyzed and quantified against a standard of known concentration in DMSO using generic HPLC-UV methodology coupled with mass spectral peak identification (J. Med. Chem., 2006, 49(23), 6672-6682).

[2] = Protein binding by equilibrium dialysis; assay type: in vitro ADME; conditions: rat, equilibrium dialysis against 10% plasma, 37° C., read-out: Protein binding, % free
Description: Protein binding is determined by equilibrium dialysis. A 20 iM concentration of compound is dialyzed against 10% plasma at a temperature of 37° C. for 18 h. The resulting samples are analyzed using generic HPLC-UV methodology coupled with mass spectral peak identification. The reported K1 value is the first apparent association constant [proteináligand]/([protein][ligand]), all concentrations being measured in moles/liter (J. Med. Chem., 2006, 49(23), 6672-6682).
Protein binding can be measured in a high-throughput screen by equilibrium dialysis combined with liquid chromatography and mass spectrometry (Wan, H. and Rehngren, M., J. Chromatogr. A 2006, 1102, 125-134).

[3] = biological target: T1, human cytochrome P450 (CYP) 1A2 (Homo sapiens, UniProt P05177); experiment: Cytochrome P450 Inhibition Assay 1A2; assay type: in vitro ADME; conditions: test compound final concentrations 0.1-10 μM; substrate CEC
T1 construct: made in house; host or cells: yeast cell lines (microsomal fractions)
T1 sequence (P05177 1-516): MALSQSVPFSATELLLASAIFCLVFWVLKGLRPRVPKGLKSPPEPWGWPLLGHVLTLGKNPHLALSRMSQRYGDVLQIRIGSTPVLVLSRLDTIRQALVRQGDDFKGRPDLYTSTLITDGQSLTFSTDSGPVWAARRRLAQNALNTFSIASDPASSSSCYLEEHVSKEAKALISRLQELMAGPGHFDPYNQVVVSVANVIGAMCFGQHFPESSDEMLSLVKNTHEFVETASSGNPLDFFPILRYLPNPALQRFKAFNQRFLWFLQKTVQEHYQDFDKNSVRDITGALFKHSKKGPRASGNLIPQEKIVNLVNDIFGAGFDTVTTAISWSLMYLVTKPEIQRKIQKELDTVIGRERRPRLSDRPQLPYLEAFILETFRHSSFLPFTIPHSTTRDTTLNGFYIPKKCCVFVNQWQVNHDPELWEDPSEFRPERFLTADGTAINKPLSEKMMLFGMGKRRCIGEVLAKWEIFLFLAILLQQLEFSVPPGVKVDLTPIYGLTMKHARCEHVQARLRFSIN
Description: The inhibitory potential (IC50) of test compounds against 5 human cytochrome P450 (CYP) isoforms (1A2, 2C9, 2C19, 3A4 and 2D6) was assessed using an automated fluorescent end point in vitro assay modified from Crespi (Crespi and Stresser, 2000). Microsomal subcellular fractions prepared from Yeast cell lines expressing each human CYP isoform were used as an enzyme source in this assay. The activity of the 5 major human CYPs was determined from the biotransformation of a number of coumarin substrates to fluorescent metabolites, in the presence of NADPH. […] Comparison of the fluorescence observed in the presence of varying concentrations of test compound with that seen in its absence allowed an IC50 value to be calculated. Stock solutions of each CYP, with its respective substrate, were prepared in phosphate buffer pH7.4 (see Table 1) and 178 μl was added to the well of a black solid, flat bottom, 300 μl 96 well is microtitre plate (Corning Costar). […] The appropriate solvent controls and substrate blanks were included in each experiment to assess control activity and identify any inherent fluorescence due to the test compounds. […] The plates were read on a fluorimeter (Spectrafluor Plus) at the appropriate excitation and emission wavelengths (listed in Table 2) and the percent activity, corrected for control, was plotted against the test compound concentration.

| Structure (SMILES) | solubility at 24 h ([1]; 25° C.) [µM] | fraction unbound at 18 h, 20 µM [2] | IC50 [3] [µM] | solubility at 24 h ([1]; phosphate buffer, 25 °C, pH 7.4, aqueous buffer, thermodynamic from solid) [µM] |
| --- | --- | --- | --- | --- |
| COc1cc(Nc2cc(C)n[nH]2)nc(N2CCC[C@H]2c2cc(-c3ncccn3)no2)n1 [Example 1, (S)-6-Methoxy-2-{2-[3-(pyrimid-2-yl)isoxazol-5-yl]pyrrolidin-1-yl}-4-(5-methyl-1H-pyrazol-3-ylamino)pyrimidine] | 160 (≈ 67.1 µg/mL) | 0.0523 | > 10 | – |
| CCc1cc(Nc2cc(OC)nc(N3CCC[C@H]3c3cc(-c4ncccn4)no3)n2)n[nH]1 [Comparative Example A, (S)-6-Methoxy-2-{2-[3-(pyrimid-2-yl)isoxazol-5-yl]pyrrolidin-1-yl}-4-(5-ethyl-1H-pyrazol-3-ylamino)pyrimidine] | – | 0.0205 | 1.87 | 9.24 (≈ 4.01 µg/mL) |
